Laboratory results reported in patent US5962502A, “Polyamidic acid derivatives with antigastrin activity, a method for their preparation, and their pharmaceutical use” (priority 1993, dated 1999).
Where “and” joins values, the source holds several entries; their conditions need not be identical. Equal entries are not always repeated.

Legend:
[1] = system: acid secretion induced by pentagastrin; test: Acid secretion induced by pentagastrin in the anaesthetized rat; type: in vivo; details: iv, 1 h, I.V. bolus, pentagastrin 30 mcg/kg/h, read-out: Activity (ID50), inhibition of the acid secretion induced by pentagastrin
Procedure: The activity of the compounds of the invention against gastric secretion performed by means of a mechanism with an antigastrin effect, was examined in vivo in anaesthetized rats with the use of male animals weighing about 200 g. Gastric secretion was stimulated with pentagastrin and Lai's method [Gut 5, (1964), 327-341 ] was used, with slight modification.
After tracheotomy, the oesophagus and duodenum were cannulated. A tepid solution (37° C.) of 0.25 mM NaOH was perfused and was passed through the stomach by means of a peristaltic pump at a constant flow-rate of 1 ml/minute. After stabilization for 20 minutes, the stimulant, dissolved in a physiological solution, was perfused for 120 minutes at a dose of 30 mcg/kg/h, in a volume of 0.95 ml/hour. After perfusion for 60 minutes (the basal stimulation), the product under test was administered intravenously (I.V.) as a bolus and perfusion of the stimulant was continued for a further 60 minutes. The acid secretion was recorded continuously as a function of time.
The activity of the product was evaluated as the percentage reduction of secreted acidity after the administration of the product, in comparison with the basal acidity measured during the first 60 minutes of collection in the presence of pentagastrin alone.
The antagonistic compounds tested were administered in various doses so that an ID50, that is, the dose (in mg/kg I.V.) which could inhibit the effect of pentagastrin by 50%, could be calculated.

central CCK-B receptor = target: T1, central CCK-B receptor (Cavia porcellus, UniProt H0VZC5); test: Inhibition of the binding of [3-H][N-methyl-N-leucine]CCK-8 to guinea-pig cortical membranes; details: guinea-pig cortical membranes, 150 minutes at 25° C.
T1 construct: Cerebral cortices of male white guinea-pigs were thus used; from tissue; host or cells: cerebral cortex membranes of male white guinea-pigs
T1 sequence (H0VZC5 1-426): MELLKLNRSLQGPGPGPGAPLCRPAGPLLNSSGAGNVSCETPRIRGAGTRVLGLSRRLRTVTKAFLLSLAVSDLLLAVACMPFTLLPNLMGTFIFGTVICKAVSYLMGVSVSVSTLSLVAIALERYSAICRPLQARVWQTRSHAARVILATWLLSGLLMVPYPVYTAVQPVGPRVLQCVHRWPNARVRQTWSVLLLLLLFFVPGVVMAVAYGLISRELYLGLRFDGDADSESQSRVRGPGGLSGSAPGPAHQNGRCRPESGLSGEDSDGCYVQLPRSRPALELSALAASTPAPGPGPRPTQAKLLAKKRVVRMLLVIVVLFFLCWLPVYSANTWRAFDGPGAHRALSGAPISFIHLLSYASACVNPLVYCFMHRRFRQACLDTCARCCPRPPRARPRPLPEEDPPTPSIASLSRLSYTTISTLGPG
Procedure: The ability of the compounds of the invention to interact with the central CCK-B receptor was evaluated with the use of non-sulphated [3-H] […] 225 (3) (1990), 1278-1286].
Cerebral cortices of male white guinea-pigs were thus used, according to the method mentioned above, so as to obtain a membrane content corresponding to about 300 mcg of proteins/ml. The membranes were incubated together with the radioactive tracer and the compounds under test for 150 minutes at 25° C. After the supernatant had been discarded, the radioactivity associated with the pellet was determined with a liquid scintillator. The specific binding was determined as the difference between the binding in the absence and in the presence of 5.10^-6 M CCK-8.

[2] = target: T2, gastrin receptors or type-B cholecystokinin (CCK-B) receptors (Oryctolagus cuniculus, UniProt P46627); test: Inhibition of the gastrin-induced increase of cytosolic calcium in rabbit gastric mucous-membrane cells (Fura 2); type: cell-based; details: for Ratio IC50 Binding cortex / IC50 (gastric mucous cells): binding values taken from Table 3; for IC50, inhibition of the increase of cytosolic calcium: rabbit gastric mucous cells enriched in parietal cells, gastrin 5×10^-8
T2 construct: Rabbit gastric mucous-membrane cells were prepared by conventional techniques; endogenous in cells; host or cells: freshly isolated rabbit gastric mucosal cells, enriched by elutriation to about 70% parietal cells
T2 sequence (P46627 1-452): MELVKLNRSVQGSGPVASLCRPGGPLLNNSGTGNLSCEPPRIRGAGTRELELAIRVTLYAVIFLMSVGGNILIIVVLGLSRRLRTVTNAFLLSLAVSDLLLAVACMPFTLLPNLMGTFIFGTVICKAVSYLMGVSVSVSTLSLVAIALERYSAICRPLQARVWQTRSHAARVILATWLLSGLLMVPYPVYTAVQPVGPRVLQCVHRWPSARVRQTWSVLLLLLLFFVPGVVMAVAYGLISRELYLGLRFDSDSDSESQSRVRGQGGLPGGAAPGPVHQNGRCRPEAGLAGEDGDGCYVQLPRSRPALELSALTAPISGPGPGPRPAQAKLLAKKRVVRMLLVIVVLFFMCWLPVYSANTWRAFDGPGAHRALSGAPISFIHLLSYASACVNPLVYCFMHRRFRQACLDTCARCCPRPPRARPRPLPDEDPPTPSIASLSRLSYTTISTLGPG
Description: The parietal cells of the gastric mucous membrane are responsible for the secretion of HCl. They have specific membrane receptors which can be activated by gastrin and which have been defined as gastrin receptors or type-B cholecystokinin (CCK-B) receptors. Since it has been observed that the activation of the CCK-B receptors by gastrin leads to an increase in the cytosolic levels of calcium ions, a technique involving the measurement of the increase in intracellular calcium induced by gastrin in the presence and in the absence of the compounds of the invention was used as an index of the antigastrin activity of the compounds. Rabbit gastric mucous-membrane cells were prepared by conventional techniques with the use of collagenase and pronase as digestive enzymes. The cellular preparation obtained by the enzymatic digestion was composed of parietal cells, zymogen cells and mucous-membrane cells. […] The cells were then washed and resuspended in a saline solution buffered with HEPES containing, in mM: […] Each measurement was carried out on cells in suspension (0.8×10^6 /ml) at a thermostatically-controlled temperature of 37° C. and with constant magnetic stirring. The fluorescence was recorded with the use of a spectrofluorometer. The operative wavelengths were 340/380 nm for excitation and 505 nm for emission. […] Biol. Chem. 260 (1985), 3440]. […] The results thus obtained for some compounds of the invention are given in Table 4, which also gives an index derived from the ratio between the peripheral antigastrin activity just described and the displacement activity found in the test on binding to the guinea-pig cortex receptors described above.

mouse = test: Black and White Box test in the mouse (anxiolytic activity); type: in vivo; details: for LIGHT TIME TOTAL TIME / LIGHT-DARK MOVEMENTS / MOV. DARK % TOTAL MOV. / TOTAL MOVEMENTS: 5 minutes
Procedure: It has recently been postulated that the central CCK-B receptor has an important role in anxiety. This is in accordance with studies also carried out in man, which have shown that the central CCK-B mechanisms have an important function in the mediation of panic attacks [Bradwejn, H. et al; J. Psychopharmacology 6 (1992), 345]. […] This experimental model, which was carried out according to Costall et al [Pharm. Biochem. Behav. 32 (1989), 777-785], used a box with dimensions of 45×21×21(h) cm divided into 2 compartments which communicated with one another through a 13×5 cm hole. The smaller compartment (1/3 of the total area) had black walls, whereas the larger had transparent walls and was illuminated by a lamp which was placed 20 cm above the box and supplied light at 20W. Under the floor there was an activity meter which recorded the movements performed by the animal in the individual compartments. The experiment was started by placing the animal in the centre of the illuminated box; as well as movements, the time which the animal spent in the dark and in the light areas and the number of movements between the 2 compartments were then recorded for 5 minutes. A control animal generally preferred to stay in the dark compartment where it felt better protected from an unusual environmental situation which put it in a state of anxiety. In this experimental model, a compound having anxiolytic activity decreased the % of movements into the dark in comparison with the total movements, increased the movements between the two light-dark compartments, and increased the % of time spent in the light in comparison with the total time.
The results obtained are shown in Table 7, where the activities obtained with compounds 9, 21 and 51 are given, tested in comparison with diazepam.

Compound: CN(Cc1ccccc1)C(=O)[C@@H](CCC(=O)O)NC(=O)CC[C@@H](NC(=O)c1cc(Cl)cc(Cl)c1)C(=O)N1CCC2(CCCC2)CC1 [Compound 38]
- ED50 [1]: 7 mg/kg and 10.4 µmol/kg
- IC50 (central CCK-B receptor): 180 nM
- Ratio IC50 Binding cortex / IC50 (gastric mucous cells) [2]: 6.0
- IC50, inhibition of the increase of cytosolic calcium [2]: 30 nM

Compound: CN(C(=O)CC[C@@H](NC(=O)c1cc(Cl)cc(Cl)c1)C(=O)N1CCC2(CCCC2)CC1)c1ccccc1C(=O)O [Compound 51]
- ED50 [1]: 9 mg/kg and 15.7 µmol/kg
- IC50 (central CCK-B receptor): 120 nM
- Ratio IC50 Binding cortex / IC50 (gastric mucous cells) [2]: 2.4
- IC50, inhibition of the increase of cytosolic calcium [2]: 50 nM
- EFF. % VS CONTROL (LIGHT TIME TOTAL TIME) (mouse; 0.1 mg/kg IP): 12%
- EFF. % VS CONTROL (LIGHT-DARK MOVEMENTS) (mouse; 0.1 mg/kg IP): 19%
- EFF. % VS CONTROL (MOV. DARK % TOTAL MOV.) (mouse; 0.1 mg/kg IP): -12%
- LIGHT TIME TOTAL TIME (mouse; 0.1 mg/kg IP): 27.0%
- LIGHT-DARK MOVEMENTS (mouse; 0.1 mg/kg IP): 17.6
- MOV. DARK % TOTAL MOV. (mouse; 0.1 mg/kg IP): 61%
- TOTAL MOVEMENTS (mouse; 0.1 mg/kg IP): 472
- EFF. % VS CONTROL (LIGHT TIME TOTAL TIME) (mouse; 1.0 mg/kg IP): 48%
- EFF. % VS CONTROL (LIGHT-DARK MOVEMENTS) (mouse; 1.0 mg/kg IP): 34%
- EFF. % VS CONTROL (MOV. DARK % TOTAL MOV.) (mouse; 1.0 mg/kg IP): -14%
- LIGHT TIME TOTAL TIME (mouse; 1.0 mg/kg IP): 35.6%
- LIGHT-DARK MOVEMENTS (mouse; 1.0 mg/kg IP): 19.8
- MOV. DARK % TOTAL MOV. (mouse; 1.0 mg/kg IP): 59%
- TOTAL MOVEMENTS (mouse; 1.0 mg/kg IP): 484
- EFF. % VS CONTROL (LIGHT TIME TOTAL TIME) (mouse; 10.0 mg/kg IP): 16%
- EFF. % VS CONTROL (LIGHT-DARK MOVEMENTS) (mouse; 10.0 mg/kg IP): 37%
- EFF. % VS CONTROL (MOV. DARK % TOTAL MOV.) (mouse; 10.0 mg/kg IP): -10%
- LIGHT TIME TOTAL TIME (mouse; 10.0 mg/kg IP): 27.8%
- LIGHT-DARK MOVEMENTS (mouse; 10.0 mg/kg IP): 20.3
- MOV. DARK % TOTAL MOV. (mouse; 10.0 mg/kg IP): 62%
- TOTAL MOVEMENTS (mouse; 10.0 mg/kg IP): 436
- anxiolytic activity, result in words (mouse; Black and White Box test, IP): anxiolytic activity without sedative activity
- increase in the number of light-dark movements in comparison with the controls (mouse; summary over doses): 20-30%

Compound: O=C(N[C@H](CCC(=O)N1CCCC(C(=O)O)C1)C(=O)N1CCC2(CCCC2)CC1)c1cc(Cl)cc(Cl)c1 (stereo partly drawn) [Compound 58, (R)-1-(piperidine-3-carboxy)-1-oxo-5-(8-azaspiro[4.5]decan-8-yl)-4-(3,5-dichloro-benzoylamino)-5-oxopentanoic acid]
- ED50 [1]: 10.1 mg/kg and 18.3 µmol/kg
- IC50 (central CCK-B receptor): 640 nM
- Ratio IC50 Binding cortex / IC50 (gastric mucous cells) [2]: 1.9
- IC50, inhibition of the increase of cytosolic calcium [2]: 330 nM
